# Source: US20210040452A1, “HEMATOPOIETIC CELLS AND METHODS OF USING AND GENERATING THE SAME” (The Regents of the University of California, priority 2015, published 2021)
# Tests used:
# [1] = tested on: wild type E11 whole AGM explants; assay: AGM explant culture with DAPT, HE ratio by FACS; assay type: cell-based, mouse
# Description: Currently it is not possible to predict which specific endothelial cell within a hemogenic vascular bed will transition to a hematopoietic fate. Also not known is whether endothelial cells comprising the same hemogenic site are all capable of EHT. So whether the actual cell fate conversion is a stochastic event or a predetermined fate change remains to be seen. To circumvent the current obstacles of EHT prediction, we adopted a fate tracing strategy^48 that allows measurement of traced hematopoietic cell populations from labeled endothelial precursors within a specific hemogenic vascular site. By inducing endothelial recombination of Sox17 in AGM explants using the Cdh5(PAC)-CreERT2/RTom/Sox17flox transgenic mouse line, the number of EHT derived hematopoietic cells can be quantified through fate mapping (FIG. 13c, and FIG. 25C). Tamoxifen induction in vitro with the active metabolite 4-hydroxytamoxifen (4-OHT) at E11.0 allows immediate ablation in AGM explants during EHT, and the calculation of a HE ratio which we define as traced hematopoietic cells (HCs) compared to traced endothelial cells (ECs). […] The observed increase in HE ratios and HSPC number is not due to proliferation effects (as measured by BrdU incorporation, FIG. 25D), nor is the higher HE ratio due to changes in cell death (Annexin-V staining, supplementary FIG. 25D). We also observe increases in maturing hematopoietic populations (CD31−CD117+Sca1+Td+), FIG. 25E. In addition, when a similar strategy is applied to earlier explants (E9.5) prior to hematopoietic cell cluster emergence, we observe similar trends in the HE ratio (FIG. 25F). […] To further evaluate the role of Sox17 in this process, we undertook gain-of-function studies in wildtype AGM explants using adenoviral-mediated overexpression of human Sox17 (AdhSox17-GFP), FIG. 13g. GFP expression in explants overlapped with SOX17 co-staining (FIG. 13h), allowing for cell sorting of AGM endothelial cells (CD31+) that were either successfully infected (GFP+) or not infected (GFP−) by AdhSox17-GFP, FIG. 13i. […] We also show the known positive regulation of Notch1 by Sox17, and regulation of other SoxF family members, Sox7 and Sox18.
# Whole embryos or AGMs were dissociated as described67 and stained for 30 min at 4° C. with agitation. Single cell suspensions were sorted in a BD FACS Aria III. Flow cytometric analyses were performed on a FACS Verse or FACS Aria III with FACSDiva 8.0 software (BD Biosciences) and data analyzed using FlowJo v10.0.7 (Tree Star). Gating strategy in FIG. 25C, see Table 7 for a list of antibodies.
# AGMs from Cdh5(PAC)-CreERT2/R26RTd/Sox17 and Notch1 floxed embryos were dissected and cultured for 24 hrs in 4-hydroxytamoxifen 4-OHT (Sigma H7904) as previously described48, at E11 (and E9.5 for Sox17 mutants). In vivo induction was achieved by intraperitoneal injection of 0.8 mg of tamoxifen of pregnant dams at E9.5. Tamoxifen (MP Biomedical, 156738) prepared as previously described48. DAPT γ-secretase inhibitor (Sigma, D5942) was prepared in DMSO and added directly to explant culture medium at final concentrations of 25 μM, 50 μM, 100 μM, or 200 μM. For overexpression studies, AGMs were incubated with 8×10^7 adenoviral particles per milliliter at 37 C with agitation for 1 hr prior to explant culture48. Adeno-CMV-hSox17-GFP (AdhSox17-GFP) was produced by Vector Biolabs (ADV-224019, Ref Seq: BC140307).
# [2] = tested on: mouse embryos at E12.5; assay: Mitotic arrest by nocodazole injection into mouse embryos; assay type: in vivo; details: E12.5, 2 hrs prior to sacrifice
# [3] = tested on: murine HSPCs; assay: Addition of Tgfβ1 to newly formed murine HSPCs; assay type: cell-based; details: preliminary mouse studies
compound,measurement,setting,value
C[C@H](NC(=O)Cc1cc(F)cc(F)c1)C(=O)N[C@H](C(=O)OC(C)(C)C)c1ccccc1 [DAPT],HE ratios after AGM explants were exposed,[1],increased HE ratios
same,HE ratio in comparison to control,"[1]; 50-100 μM DAPT, 24 hours, control DMSO",significant increase
same,"Wildtype HE ratio (DAPT), Mean","[1]; WT + 25 μM, 24 hours",0.9771
same,"Wildtype HE ratio (DAPT), Mean","[1]; WT + 50 μM, 24 hours",0.9702
same,"Wildtype HE ratio (DAPT), Mean","[1]; WT + 100 μM, 24 hours",0.9649
same,"Wildtype HE ratio (DAPT), Mean","[1]; WT + 200 μM, 24 hours",0.8264
COC(=O)Nc1nc2ccc(C(=O)c3cccs3)cc2[nH]1 [nocodazole],mitotic arrest in the endothelium,[2],not arrested in mitosis
same,mitotic arrest in the myocardium,[2],multiple cell division arrests
Tgfβ1: transforming growth factor β1,maturation of HSPCs,[3],may accelerate their maturation
